Measurements as given in patent US11441142B2, “FLS variant having increased activity” (KONKUK UNIVERSITY INDUSTRIAL COOPERATION CORPORATION, priority 2017, dated 2022).
Read-outs that look alike come from different tables or passages of the source.

What was measured:
[1] = system: Lactobacillus brevis DDH (diol dehydratase), wild type, SEQ ID NO: 18; details: substrate 2,3-butanediol, coenzyme B12; cited from earlier work
[2] = target: T1, Clostridium autoethanogenum BDH (2,3-butanediol dehydrogenase), wild type, SEQ ID NO: 14 (Clostridium autoethanogenum, UniProt A0ABM5NRF0); assay: kinetic parameters of BDH; assay type: biochemical; details: coenzyme NADH, pH 7.5, room temperature
T1 sequence (A0ABM5NRF0 1-351): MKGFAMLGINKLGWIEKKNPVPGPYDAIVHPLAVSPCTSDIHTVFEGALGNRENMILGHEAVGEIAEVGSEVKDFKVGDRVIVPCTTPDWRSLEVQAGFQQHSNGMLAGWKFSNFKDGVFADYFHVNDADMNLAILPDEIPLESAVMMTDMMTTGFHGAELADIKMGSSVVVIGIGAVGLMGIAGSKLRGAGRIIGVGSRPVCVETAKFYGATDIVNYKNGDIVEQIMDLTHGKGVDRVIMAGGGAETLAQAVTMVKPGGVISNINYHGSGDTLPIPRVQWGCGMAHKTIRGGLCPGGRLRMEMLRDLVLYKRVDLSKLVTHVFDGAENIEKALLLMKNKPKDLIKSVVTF

[3] = target: T2, Clostridium autoethanogenum BDH (2,3-butanediol dehydrogenase) variant BDH:S199A, SEQ ID NO: 16 (Clostridium autoethanogenum, UniProt A0ABM5NRF0, S199A); assay: kinetic parameters of BDH:S199A; assay type: biochemical; details: for kcat / kcat/Km: pH 7.5, room temperature
T2 sequence (A0ABM5NRF0 1-351 S199A): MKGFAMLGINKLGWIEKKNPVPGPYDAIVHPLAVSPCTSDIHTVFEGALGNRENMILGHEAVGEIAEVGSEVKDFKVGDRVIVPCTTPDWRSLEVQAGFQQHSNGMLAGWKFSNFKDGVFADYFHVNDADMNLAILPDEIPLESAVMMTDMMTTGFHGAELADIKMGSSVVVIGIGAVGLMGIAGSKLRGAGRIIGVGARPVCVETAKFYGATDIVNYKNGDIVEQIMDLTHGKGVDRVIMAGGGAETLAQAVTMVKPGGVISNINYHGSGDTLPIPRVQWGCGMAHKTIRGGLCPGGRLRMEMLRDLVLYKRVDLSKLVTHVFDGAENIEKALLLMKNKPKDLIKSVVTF
Description: (§1) The kinetic parameters of EtDH and EtDH:D46G were identified by reacting the EtDH and EtDH:D46G with a reaction mixture containing 100 mM glycine-NaOH buffer solution (pH 9.5), 5 mM Mg^2+, 3 mM NAD^+/NADP^+ and 0.5 to 100 mM ethanol at room temperature. The kinetic parameters of FLS and variants thereof were identified by reacting FLS and variants thereof with a reaction mixture containing 100 mM phosphate buffer solution (pH 8.0), 1 mM Mg^+, 0.1 mM TPP and 0.5 to 20 mM acetaldehyde at room temperature. The kinetic parameters of BDH and BDH:S199A were identified by reacting BDH and BDH:S199A with a reaction mixture containing 50 mM Tris-HCl buffer solution (pH 7.5), 0.2 mM NADPH, 1 mM DTT; 0.5 to 100 mM acetoin or 0.5 to 10 mM butanone at room temperature. The Km and kcat values were identified using nonlinear regression fitting of the Michaelis-Menten equation and the fitting were repeated three times.
(§2) In order to compare the catalytic efficiencies via measurement of kinetic parameters of cascade enzymes and variants thereof in accordance with the present disclosure, the following experiment was performed. Specifically, the kinetic parameters of EtDH and EtDH:D46G were identified by reacting EtDH and EtDH:D46G with a reaction mixture containing 100 mM glycine-NaOH buffer solution (pH 9.5), 5 mM Mg^2+, 3 mM NAD^+/NADP^+ and 0.5 to 100 mM ethanol at room temperature. The kinetic parameters of FLS and variants thereof were identified by reacting FLS and variants thereof with a reaction mixture containing 100 mM phosphate buffer solution (pH 8.0), 1 mM Mg^+, 0.1 mM TPP and 0.5 to 20 mM acetaldehyde at room temperature. The kinetic parameters of BDH and BDH:S199A were identified by reacting BDH and BDH:S199A with a reaction mixture containing 50 mM Tris-HCl buffer solution (pH 7.5), 0.2 mM NADPH, 1 mM DTT; and 0.5 to 100 mM acetoin or 0.5 to 10 mM butanone at room temperature. Km and kcat values as substrate affinity were identified using nonlinear regression fitting of the Michaelis-Menten equation and the fitting were repeated three times. The test results of DDH and NOX were compared with previous results [(S. Kwak, et al., Bioresource Technol., 2013, 135, 432), and (M. Kopke, et al., Appl. Environ. Microbiol., 2014, 80, 3394)].

[4] = system: Cupriavidus necator EtDH (ethanol dehydrogenase) variant EtDH:D46G, SEQ ID NO: 6; details: pH 9.5, room temperature
Description: as §1, §2

[5] = system: Cupriavidus necator EtDH (ethanol dehydrogenase), wild type, SEQ ID NO: 4; details: substrate ethanol, pH 9.5, room temperature
Description: as §1, §2

[6] = system: Lactobacillus rhamnosus NOX (NADH oxidase), SEQ ID NO: 2; details: substrate O2, coenzyme NADH; cited from earlier work
[7] = substrate: CC(=O)C(C)O; assay: kinetic parameters of BDH; assay type: biochemical, Clostridium autoethanogenum; details: other: substrate acetoin, coenzyme NADPH (0.2 mM), pH 7.5, room temperature
[8] = substrate: CCC(C)=O; assay: kinetic parameters of BDH; assay type: biochemical, Clostridium autoethanogenum; details: other: substrate butanone, coenzyme NADPH (0.2 mM), pH 7.5, room temperature
[9] = substrate: CCC(C)=O; assay: kinetic parameters of BDH:S199A; assay type: biochemical, Clostridium autoethanogenum; details: other: substrate butanone, coenzyme NADPH (0.2 mM), pH 7.5, room temperature
[10] = substrate acetoin, coenzyme NADH
[11] = substrate acetoin, coenzyme NADPH (0.2 mM)
[12] = substrate butanone, coenzyme NADH
[13] = second line of EtDH:D46G, coenzyme printed NAD^+
[14] = substrate ethanol, coenzyme NAD^+ (3 mM)

Molecule: C[C@H](O)[C@@H](C)O [2,3-butanediol]
- Km [1]: 10400 µM
- kcat [1]: 35 s⁻¹
- kcat/Km [1]: 3400 M⁻¹ s⁻¹

Molecule: CC(=O)C(C)O (stereo not shown) [Acetoin]
- kcat ([2]; substrate acetoin): 0 s⁻¹
- kcat/Km ([2]; substrate acetoin): 0 M⁻¹ s⁻¹
- kcat [3, 10]: 0 s⁻¹
- kcat/Km [3, 10]: 0 M⁻¹ s⁻¹
- kcat [3, 11]: 224.3 ± 9.72 s⁻¹
- kcat/Km [3, 11]: 19310 M⁻¹ s⁻¹

Molecule: CCC(C)=O [Butanone]
- kcat ([2]; substrate butanone): 0 s⁻¹
- kcat/Km ([2]; substrate butanone): 0 M⁻¹ s⁻¹
- kcat [3, 12]: 0 s⁻¹
- kcat/Km [3, 12]: 0 M⁻¹ s⁻¹
- catalytic efficiency compared to wild-type BDH ([3]; substrate butanone, coenzyme NADPH): increases catalytic efficiency

Molecule: CCO [Ethanol]
- Km [4, 13]: 600 ± 20 µM
- kcat [4, 13]: 0.99 ± 0.03 s⁻¹
- kcat/Km [4, 13]: 1650 M⁻¹ s⁻¹
- Km [4, 14]: 570 ± 30 µM
- kcat [4, 14]: 5.85 ± 0.08 s⁻¹
- kcat/Km [4, 14]: 9970 M⁻¹ s⁻¹
- kcat ([5]; coenzyme NADP^+ (3 mM)): 0 s⁻¹
- kcat/Km ([5]; coenzyme NADP^+ (3 mM)): 0 M⁻¹ s⁻¹
- Km ([5]; coenzyme NAD^+ (3 mM)): 370 ± 50 µM
- kcat ([5]; coenzyme NAD^+ (3 mM)): 6.28 ± 0.11 s⁻¹
- kcat/Km ([5]; coenzyme NAD^+ (3 mM)): 17090 M⁻¹ s⁻¹

Molecule: O=O [O2]
- kcat [6]: 218.7 s⁻¹
- kcat/Km [6]: 3.77e+07 M⁻¹ s⁻¹

B1: Clostridium autoethanogenum BDH (2,3-butanediol dehydrogenase), wild type, SEQ ID NO: 14 (Clostridium autoethanogenum DSM 10061) (protein)
chain: MKGFAMLGINKLGWIEKKNPVPGPYDAIVHPLAVSPCTSDIHTVFEGALGNRENMILGHEAVGEIAEVGSEVKDFKVGDRVIVPCTTPDWRSLEVQAGFQQHSNGMLAGWKFSNFKDGVFADYFHVNDADMNLAILPDEIPLESAVMMTDMMTTGFHGAELADIKMGSSVVVIGIGAVGLMGIAGSKLRGAGRIIGVGSRPVCVETAKFYGATDIVNYKNGDIVEQIMDLTHGKGVDRVIMAGGGAETLAQAVTMVKPGGVISNINYHGSGDTLPIPRVQWGCGMAHKTIRGGLCPGGRLRMEMLRDLVLYKRVDLSKLVTHVFDGAENIEKALLLMKNKPKDLIKSVVTF
- Km [7]: 84560 ± 7960 µM
- Km [8]: 1940 ± 50 µM
- kcat [8]: 29.9 ± 1.02 s⁻¹
- kcat/Km [8]: 15400 M⁻¹ s⁻¹

B2: Clostridium autoethanogenum BDH (2,3-butanediol dehydrogenase) variant BDH:S199A, SEQ ID NO: 16 (Clostridium autoethanogenum DSM 10061; S199A) (protein)
chain: MKGFAMLGINKLGWIEKKNPVPGPYDAIVHPLAVSPCTSDIHTVFEGALGNRENMILGHEAVGEIAEVGSEVKDFKVGDRVIVPCTTPDWRSLEVQAGFQQHSNGMLAGWKFSNFKDGVFADYFHVNDADMNLAILPDEIPLESAVMMTDMMTTGFHGAELADIKMGSSVVVIGIGAVGLMGIAGSKLRGAGRIIGVGARPVCVETAKFYGATDIVNYKNGDIVEQIMDLTHGKGVDRVIMAGGGAETLAQAVTMVKPGGVISNINYHGSGDTLPIPRVQWGCGMAHKTIRGGLCPGGRLRMEMLRDLVLYKRVDLSKLVTHVFDGAENIEKALLLMKNKPKDLIKSVVTF
- Km [9]: 1080 ± 90 µM
- kcat [9]: 40.8 ± 1.42 s⁻¹
- kcat/Km [9]: 37800 M⁻¹ s⁻¹
